# Data: patent US20220233743A1, “WOUND CLOSURE ENHANCEMENT METHODS AND MATERIALS VIA MANIPULATION OR AUGMENTATION OF LIPIN-1” (Board of Supervisors of Louisiana State University and …, priority 2019, published 2022)
# Tested on: BMDMs
# Experiment: IL-4 mediated wound-healing gene expression, qRT-PCR
# Assay type: cell-based, mouse
# Conditions: 20 ng/ml IL-4 for 4 h
# Procedure: Bone marrow-derived macrophages were treated with IL-4 (R&D Biosystems, 404-ML-050) for 4 h and mRNA was extracted from the cultured cells using RNeasy Mini Kit (Qiagen—74106) as per manufacturer's instructions. cDNA template was generated using qScript cDNA SuperMix (Quantabio, 95048). qRT-PCR was performed in a Biorad iCycler with SsoAdvanced Universal SYBER Green SuperMix (Biorad, 172-5271). Primers (FIG. 42) were obtained from the Harvard primer bank database. Primer specificity was confirmed using primer BLAST and by verifying the presence of a single peak in melt curve analysis. Results were expressed as fold change relative to IL-4 treated WT cells by 2^−ΔΔCt method after normalizing with GAPDH.
# Pro-inflammatory response in macrophages is influenced by lipin-1, but if lipin-1 contributes to wound healing responses by macrophages is unknown. The inventors have previously generated lipin-1^mEnzyKO mice that express a truncated lipin-1 protein lacking lipin-1 enzymatic activity but retain transcriptional co-regulatory function in myeloid cells. […] BMDMs from lipin-1^mEnzyKO, lipin-1^mKO, and appropriate littermate controls were stimulated with 20 ng/ml of IL-4 for 4 h. mRNA was isolated and analyzed for the expression of several canonical wound-healing associated genes: Arg1, Socs2, Ccl17, Mannr, Il10, and Pparg. […]
substance,measurement,setting,value
"IL-4: cytokine IL-4 (R&D Biosystems, 404-ML-050) used to stimulate macrophages; optional component of the claimed composition",expression of IL-4 elicited genes,lipin-1mEnzyKO BMDMs vs WT BMDMs,equivalent expression
same,"IL-4 elicited gene expression (Arg1, Socs2, Ccl17, Mannr, Il10, Pparg)",lipin-1mKO BMDMs vs wild type or lipin-1mEnzyKO,significantly lower
